Data: PMC12363342, “Investigating the N-terminal linker histone H1 subtypes as substrates for JmjC lysine demethylases” (RSC Chemical Biology, 2025)
Square brackets hold non-standard residues; d marks the D form. Ends that are not written are not given here. Lys(Me2) = CN(C)CCCC[C@H](N)C(=O)O

Assays:
KDM6B = test: LC-MS demethylation activity assay, KDM6B; type: biochemical, human; details: 2 μM KDM, 10 μM H1/H3 peptide, 10 μM FAS, 100 μM LAA, 20 μM 2OG, 50 mM HEPES pH 7.5, 2 h, room temperature, D (di-) initial methylation state
Procedure: (§1) The substrate specificity of JmjC KDMs for H1 was examined using liquid chromatography coupled to mass spectrometry (LC-MS) assays. The H1 peptides (10 μM) were incubated with the recombinant KDM (2 μM) in HEPES buffer at pH 7.5 at room temperature for 2 h, in the presence of ferrous(II) ammonium sulfate (FAS, 10 μM), sodium ascorbate (LAA, 100 μM) and 2OG (20 μM), and then quenched with formic acid. N^ε-Methylated H3K9 and H3K36 peptides were used as positive controls (Fig. 3–5 and Fig. S2–S6).[26]
(§2) The catalytic domains of the JmjC KDMs used were recombinantly produced as reported in either Escherichia coli (KDM4AM1-L359,[38] KDM4DM1-L359,[39] KDM4EM1-R336,[30] KDM6BD1141–E1590[40] and KDM3CL2157-L2500) or Sf9 cells (KDM3AT515–S1317, KDM3B882–1761, and KDM5DM1-D775) as N-terminally His6-tagged proteins. […] To produce proteins, DNA sequences encoding for KDM3A, KDM3B and KDM5D were inserted into the pFB-LIC vector, containing a TEV-protease cleavable N-terminal 6x-histidine tag via ligation independent cloning (LIC). The resultant plasmids were transformed into baculovirus and Sf9 cells ([…]) which were infected with the virus stock. The cells were grown at 27 °C and 90 rpm for 70 h. Cells were then harvested and suspended in 100 mL of lysis buffer (50 mM HEPES-NaOH, pH 7.4, 500 mM NaCl, 20 mM imidazole, 0.5 mM Tris (2-carboxyethyl)phosphine (TCEP), 5% (v/v) glycerol). […] The supernatant was loaded onto a Ni-NTA gravity column, washed with 10 column volume of lysis buffer and eluted using the elution buffer (50 mM HEPES-NaOH, pH 7.4, 500 mM NaCl, 300 mM imidazole, 0.5 mM TCEP, 5% (v/v) glycerol). The eluted protein was further purified using S200 gel filtration column chromatography (50 mM HEPES-NaOH, pH 7.4, 150 mM NaCl, 0.5 mM TCEP and 5% glycerol). Protein purity was analysed by SDS-PAGE and further confirmed by mass spectrometry. Selected fractions were pooled, concentrated and stored at −80 °C.
(§3) All reagents were purchased from Sigma Aldrich and were of the highest grade available. Ferrous(II) ammonium sulfate (FAS) solutions were prepared freshly by dissolving FAS to 400 mM in 20 mM HCl with subsequent dilution to 1 mM using deionized water. Fresh 2OG (10 mM) and LAA (50 mM) solutions were prepared by dissolving the solids in deionised water. All enzyme reactions were performed in 384-well plates (Greiner Bio-One) with a final reaction volume of 50 μL. Substrate mixtures contained 50 mM HEPES pH 7.5, LAA (100 μM), FAS (10 μM), 2OG (20 μM) and an H1 isoform peptide (10 μM). Reactions were initiated by the addition of enzyme to a final concentration of 2.0 μM. After 2 h, the reactions were stopped by the addition of 5 μL of 10% (v/v) LC-MS grade formic acid (Fisher Scientific) to a final concentration of 1% (v/v). Product analyses were performed by liquid chromatography-mass spectrometry (LC-MS) using an Agilent 1290 infinity II LC system equipped with an Agilent 1290 multisampler and an Agilent 1290 high speed pump and connected to an Agilent 6550 accurate mass iFunnel quadrupole time of flight (Q-TOF) mass spectrometer. 1 μL of the reaction mixture was injected onto a 1.8 μm × 2.1 × 50 mm ZORBAX RRHD Eclipse Plus C18 column (Agilent). Solvent A consisted of HPLC grade water containing 0.1% (v/v) formic acid and solvent B consisted of MeCN containing 0.1% (v/v) formic acid. Peptides were separated using a stepwise gradient (0 min – 95% solvent A, 1.0 min – 80% solvent A, 3.0 min – 45% solvent A, 4.0 min – 45% solvent A, 5.0 min – 0% solvent A, 6.0 min – 0% solvent A, 7.0 min – 95% solvent A). This was followed by a 3 min post-run with 95% solvent A to re-equilibrate the column. All flow rates were 0.2 mL min^−1. A blank injection of HPLC grade water was carried out between each sample injection.

KDM5D = test: LC-MS demethylation activity assay, KDM5D; type: biochemical, human; details: 2 μM KDM, 10 μM H1/H3 peptide, 10 μM FAS, 100 μM LAA, 20 μM 2OG, 50 mM HEPES pH 7.5, 2 h, room temperature, D (di-) initial methylation state
Procedure: as §1, §2, §3

KDM4D = biological target: T1, KDM4D (Homo sapiens, UniProt Q6B0I6); test: LC-MS demethylation activity assay, KDM4D; type: biochemical; details: 10 μM FAS, 100 μM LAA, 20 μM 2OG, room temperature
T1 construct: KDM4AM1-L359,[38]; KDM4DM1-L359,[39]; KDM4EM1-R336,[30]; His6 (N); made in house; host or cells: Escherichia coli
T1 sequence (Q6B0I6 1-359): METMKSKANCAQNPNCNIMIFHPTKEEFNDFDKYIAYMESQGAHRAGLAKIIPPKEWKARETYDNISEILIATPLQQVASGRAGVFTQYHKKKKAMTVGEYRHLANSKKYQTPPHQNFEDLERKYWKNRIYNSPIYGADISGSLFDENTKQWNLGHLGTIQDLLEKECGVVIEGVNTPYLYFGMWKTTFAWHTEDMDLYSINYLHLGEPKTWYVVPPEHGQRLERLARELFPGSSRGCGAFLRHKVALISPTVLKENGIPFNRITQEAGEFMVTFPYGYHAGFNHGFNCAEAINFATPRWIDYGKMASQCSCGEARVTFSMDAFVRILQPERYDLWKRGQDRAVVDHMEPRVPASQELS
Procedure: as §1, §2, §3

KDM4E = biological target: T2, KDM4E (Homo sapiens, UniProt B2RXH2); test: LC-MS demethylation activity assay, KDM4E; type: biochemical; details: room temperature
T2 construct: KDM4DM1-L359,[39]; KDM4EM1-R336,[30]; His6 (N); made in house; host or cells: Escherichia coli
T2 sequence (B2RXH2 1-336): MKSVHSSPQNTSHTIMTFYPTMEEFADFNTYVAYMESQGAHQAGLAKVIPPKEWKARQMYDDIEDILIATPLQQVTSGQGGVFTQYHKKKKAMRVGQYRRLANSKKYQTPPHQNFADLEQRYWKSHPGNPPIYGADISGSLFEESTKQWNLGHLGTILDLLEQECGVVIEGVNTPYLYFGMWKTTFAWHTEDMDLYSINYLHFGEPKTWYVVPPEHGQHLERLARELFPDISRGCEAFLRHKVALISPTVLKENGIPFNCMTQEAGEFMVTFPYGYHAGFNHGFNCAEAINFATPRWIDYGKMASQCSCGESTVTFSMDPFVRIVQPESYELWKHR
Procedure: as §1, §2, §3

KDM3B = test: LC-MS demethylation activity assay, KDM3B; type: biochemical, human; details: 2 μM KDM, 10 μM H1/H3 peptide, 10 μM FAS, 100 μM LAA, 20 μM 2OG, 50 mM HEPES pH 7.5, 2 h, room temperature, D (di-) initial methylation state
Procedure: as §1, §2, §3

KDM3A = test: LC-MS demethylation activity assay, KDM3A; type: biochemical, human; details: 2 μM KDM, 10 μM H1/H3 peptide, 10 μM FAS, 100 μM LAA, 20 μM 2OG, 50 mM HEPES pH 7.5, 2 h, room temperature, D (di-) initial methylation state
Procedure: as §1, §2, §3

KDM4A = test: LC-MS demethylation activity assay, KDM4A; type: biochemical, human; details: 2 μM KDM, 10 μM H1/H3 peptide, 10 μM FAS, 100 μM LAA, 20 μM 2OG, 50 mM HEPES pH 7.5, 2 h, room temperature, D (di-) initial methylation state
Procedure: as §1, §2, §3

KDM3C = test: LC-MS demethylation activity assay, KDM3C; type: biochemical, human; details: 2 μM KDM, 10 μM H1/H3 peptide, 10 μM FAS, 100 μM LAA, 20 μM 2OG, 50 mM HEPES pH 7.5, 2 h, room temperature, D (di-) initial methylation state
Procedure: as §1, §2, §3

substrate conversion (demethylation) by KDM4D (KDM4D; 2 μM KDM4D, 10 μM peptide, HEPES pH 7.5, 2 h): 20–35%
KDM4D demethylation activity, D (KDM4D; 2 μM KDM, 10 μM H1/H3 peptide, 50 mM HEPES pH 7.5, 2 h, D (di-) initial methylation state): ● [red]
mono-methylated product formed by KDM4E (KDM4E; 2 μM KDM4E, 10 μM peptide, standard conditions, 2 h): ~64%
KDM4E demethylation activity, D (KDM4E; 2 μM KDM, 10 μM H1/H3 peptide, 10 μM FAS, 100 μM LAA, 20 μM 2OG, 50 mM HEPES pH 7.5, 2 h, D (di-) initial methylation state): ● [red]
Substance: KKKAA[Lys(Me2)]KAGGTPRKA [Peptide H1.2K25me2, 15-mer linker histone H1.2 residues 20-34 peptide, di-methylated K25]
KDM6B demethylation activity, D (KDM6B): ● [red]
KDM5D demethylation activity, D (KDM5D): ● [red]
KDM3B demethylation activity, D (KDM3B): ● [red]
KDM3A demethylation activity, D (KDM3A): ● [red]
KDM4A demethylation activity, D (KDM4A): ● [black] (black dots indicate low-level demethylation (<10% conversion))
KDM3C demethylation activity, D (KDM3C): ● [red]
